What all share (test): KINOMEscan Assay (DiscoverX)
Holding throughout (type): binding

Assay [1] concerns the target T1, CAMK2B (Homo sapiens, UniProt Q13554).
T1 construct: purchased DiscoverX
Conditions: read-out: % DMSO Ctrl.

Assay [2] deals with T2, RPS6KA4(Kin.Dom.2-C-terminal) (Homo sapiens, UniProt O75676).
T2 construct: Kin.Dom.2; purchased DiscoverX
The note with it: read-out: % DMSO Ctrl.

The subject of assay [3] is FLT3(ITD). The note with it: FLT3(ITD) mutant; 10 μM.
For assay [4], the target named is T3, KIT(V559D,V654A) (Homo sapiens, UniProt P10721, V559D/V654A).
T3 construct: purchased DiscoverX
Conditions: read-out: % DMSO Ctrl.

Assay [5] has as its system FLT3(ITD,D835V). The note with it: FLT3(ITD,D835V) mutant; 10 μM.
The target of assay [6] is T4, PDGFRA (Homo sapiens, UniProt P16234).
T4 construct: purchased DiscoverX
Conditions: read-out: % DMSO Ctrl.

Assay [7] concerns the target T5, PIKFYVE (Homo sapiens, UniProt Q9Y2I7).
T5 construct: purchased DiscoverX
Conditions: read-out: % DMSO Ctrl.

Assay [8] concerns the target T6, TAOK3 (Homo sapiens, UniProt Q9H2K8).
T6 construct: purchased DiscoverX
T6 sequence (Q9H2K8 1-898): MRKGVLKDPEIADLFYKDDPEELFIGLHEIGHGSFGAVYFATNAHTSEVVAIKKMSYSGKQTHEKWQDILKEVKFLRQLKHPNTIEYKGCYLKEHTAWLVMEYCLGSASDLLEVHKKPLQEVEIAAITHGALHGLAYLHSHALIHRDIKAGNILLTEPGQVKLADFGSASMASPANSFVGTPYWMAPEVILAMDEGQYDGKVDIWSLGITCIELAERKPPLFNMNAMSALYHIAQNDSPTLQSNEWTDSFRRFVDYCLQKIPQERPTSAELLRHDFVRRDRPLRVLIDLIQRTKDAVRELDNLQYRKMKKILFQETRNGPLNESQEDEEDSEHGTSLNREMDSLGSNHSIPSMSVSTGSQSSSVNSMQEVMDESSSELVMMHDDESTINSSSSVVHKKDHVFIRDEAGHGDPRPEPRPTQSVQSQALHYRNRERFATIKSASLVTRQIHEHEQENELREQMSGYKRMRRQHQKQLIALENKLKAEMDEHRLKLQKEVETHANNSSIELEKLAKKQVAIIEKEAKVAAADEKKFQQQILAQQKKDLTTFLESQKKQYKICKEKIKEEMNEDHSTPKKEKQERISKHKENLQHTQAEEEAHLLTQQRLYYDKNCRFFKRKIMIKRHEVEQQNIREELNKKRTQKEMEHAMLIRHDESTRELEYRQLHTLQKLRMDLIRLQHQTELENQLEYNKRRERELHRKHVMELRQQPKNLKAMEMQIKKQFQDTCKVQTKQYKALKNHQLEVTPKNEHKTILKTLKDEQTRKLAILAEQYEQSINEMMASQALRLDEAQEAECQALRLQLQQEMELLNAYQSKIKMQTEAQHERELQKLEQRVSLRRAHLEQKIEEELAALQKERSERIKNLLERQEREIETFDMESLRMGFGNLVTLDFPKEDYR
The note with it: read-out: % DMSO Ctrl.

For assay [9], the target named is T7, FLT3 (Homo sapiens, UniProt P36888).
T7 construct: purchased DiscoverX
T7 sequence (P36888 27-993): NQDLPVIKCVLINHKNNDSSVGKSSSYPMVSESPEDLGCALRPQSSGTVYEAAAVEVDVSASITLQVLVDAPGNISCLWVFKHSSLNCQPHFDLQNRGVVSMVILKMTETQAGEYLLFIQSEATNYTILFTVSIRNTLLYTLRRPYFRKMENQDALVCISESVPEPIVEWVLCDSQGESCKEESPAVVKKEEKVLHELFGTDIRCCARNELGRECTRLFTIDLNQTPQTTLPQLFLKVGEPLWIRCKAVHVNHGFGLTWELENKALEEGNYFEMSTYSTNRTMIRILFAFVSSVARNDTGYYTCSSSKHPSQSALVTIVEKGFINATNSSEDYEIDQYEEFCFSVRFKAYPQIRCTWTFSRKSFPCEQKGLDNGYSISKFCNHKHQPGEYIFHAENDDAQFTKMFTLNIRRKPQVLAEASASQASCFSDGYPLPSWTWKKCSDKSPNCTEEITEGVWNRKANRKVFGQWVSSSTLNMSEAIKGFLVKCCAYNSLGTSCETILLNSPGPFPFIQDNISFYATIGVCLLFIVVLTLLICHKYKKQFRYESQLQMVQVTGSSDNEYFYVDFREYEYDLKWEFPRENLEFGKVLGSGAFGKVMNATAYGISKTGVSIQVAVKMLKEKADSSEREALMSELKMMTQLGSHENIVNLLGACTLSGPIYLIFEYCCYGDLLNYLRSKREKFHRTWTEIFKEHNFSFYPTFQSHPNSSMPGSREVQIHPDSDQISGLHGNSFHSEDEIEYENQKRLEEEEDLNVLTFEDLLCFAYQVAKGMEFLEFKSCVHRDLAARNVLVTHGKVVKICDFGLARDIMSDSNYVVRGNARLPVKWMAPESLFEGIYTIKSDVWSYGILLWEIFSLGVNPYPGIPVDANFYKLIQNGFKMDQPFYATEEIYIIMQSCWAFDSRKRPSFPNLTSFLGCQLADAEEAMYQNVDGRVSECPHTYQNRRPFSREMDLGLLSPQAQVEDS
Conditions: read-out: % DMSO Ctrl.

For assay [10], the target named is T8, PIM1 (Homo sapiens, UniProt P11309).
T8 construct: purchased DiscoverX
Conditions: read-out: % DMSO Ctrl.

The target of assay [11] is T9, HIPK3 (Homo sapiens, UniProt Q9H422).
T9 construct: purchased DiscoverX
The note with it: read-out: % DMSO Ctrl.

Assay [12] deals with T10, CDK7 (Homo sapiens, UniProt P50613).
T10 construct: purchased DiscoverX
Conditions: read-out: % DMSO Ctrl.

Assay [13] has as its target T11, CSNK2A1 (Homo sapiens, UniProt P68400).
T11 construct: purchased DiscoverX
Conditions: read-out: % DMSO Ctrl.

Where two headings read alike, the source gives them in different places. Marks after values point to notes of the source that are not given here.

T8 sequence (P11309 whole entry): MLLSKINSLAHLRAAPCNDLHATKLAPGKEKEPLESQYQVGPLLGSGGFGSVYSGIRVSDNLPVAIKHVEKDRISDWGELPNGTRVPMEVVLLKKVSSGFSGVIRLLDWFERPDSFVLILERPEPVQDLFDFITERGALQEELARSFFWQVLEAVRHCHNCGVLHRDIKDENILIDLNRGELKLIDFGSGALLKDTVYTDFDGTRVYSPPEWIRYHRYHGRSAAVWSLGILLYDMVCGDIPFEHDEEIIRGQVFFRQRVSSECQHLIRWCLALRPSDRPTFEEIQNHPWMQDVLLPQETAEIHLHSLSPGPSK
T10 sequence (P50613 whole entry): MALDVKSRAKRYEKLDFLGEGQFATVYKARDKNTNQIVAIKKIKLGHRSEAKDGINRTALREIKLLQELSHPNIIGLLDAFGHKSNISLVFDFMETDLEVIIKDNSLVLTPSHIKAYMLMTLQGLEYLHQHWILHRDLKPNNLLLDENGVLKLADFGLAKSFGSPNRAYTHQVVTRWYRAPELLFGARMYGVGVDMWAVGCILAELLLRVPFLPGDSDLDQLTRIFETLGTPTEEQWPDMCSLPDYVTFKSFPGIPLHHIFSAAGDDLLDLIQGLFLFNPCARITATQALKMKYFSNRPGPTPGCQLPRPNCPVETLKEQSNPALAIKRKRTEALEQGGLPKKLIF
T9 sequence (Q9H422 whole entry): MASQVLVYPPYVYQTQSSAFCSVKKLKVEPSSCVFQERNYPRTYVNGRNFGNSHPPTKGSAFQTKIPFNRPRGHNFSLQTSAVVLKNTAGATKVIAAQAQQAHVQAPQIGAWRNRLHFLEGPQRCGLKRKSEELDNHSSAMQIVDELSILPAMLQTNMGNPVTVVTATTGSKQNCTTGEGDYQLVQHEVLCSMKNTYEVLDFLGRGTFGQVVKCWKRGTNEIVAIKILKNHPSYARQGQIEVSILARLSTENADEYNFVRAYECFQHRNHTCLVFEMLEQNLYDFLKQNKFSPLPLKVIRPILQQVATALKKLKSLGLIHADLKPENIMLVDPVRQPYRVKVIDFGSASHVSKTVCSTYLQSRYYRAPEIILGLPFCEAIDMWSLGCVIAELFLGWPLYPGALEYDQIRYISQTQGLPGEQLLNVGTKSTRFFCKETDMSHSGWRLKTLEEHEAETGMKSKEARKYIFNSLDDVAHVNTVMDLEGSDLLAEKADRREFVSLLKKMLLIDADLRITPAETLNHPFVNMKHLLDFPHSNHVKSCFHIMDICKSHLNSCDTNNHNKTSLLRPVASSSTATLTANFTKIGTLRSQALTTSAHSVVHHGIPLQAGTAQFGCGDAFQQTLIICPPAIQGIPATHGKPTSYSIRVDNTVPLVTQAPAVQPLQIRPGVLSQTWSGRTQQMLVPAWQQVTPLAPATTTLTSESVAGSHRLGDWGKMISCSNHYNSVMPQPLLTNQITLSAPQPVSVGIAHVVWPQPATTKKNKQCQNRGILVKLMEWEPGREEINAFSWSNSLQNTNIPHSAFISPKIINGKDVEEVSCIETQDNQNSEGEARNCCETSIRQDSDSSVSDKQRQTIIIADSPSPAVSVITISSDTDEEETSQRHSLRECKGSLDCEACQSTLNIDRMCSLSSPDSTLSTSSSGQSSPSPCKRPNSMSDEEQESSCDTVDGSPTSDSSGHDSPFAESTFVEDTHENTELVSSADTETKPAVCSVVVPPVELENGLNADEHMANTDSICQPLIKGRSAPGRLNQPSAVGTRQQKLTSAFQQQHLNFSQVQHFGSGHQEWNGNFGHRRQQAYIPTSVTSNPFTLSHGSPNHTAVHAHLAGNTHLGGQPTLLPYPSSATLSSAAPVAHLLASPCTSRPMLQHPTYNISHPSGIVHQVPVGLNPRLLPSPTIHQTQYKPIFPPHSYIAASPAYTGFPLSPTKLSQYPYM
T5 sequence (Q9Y2I7 whole entry): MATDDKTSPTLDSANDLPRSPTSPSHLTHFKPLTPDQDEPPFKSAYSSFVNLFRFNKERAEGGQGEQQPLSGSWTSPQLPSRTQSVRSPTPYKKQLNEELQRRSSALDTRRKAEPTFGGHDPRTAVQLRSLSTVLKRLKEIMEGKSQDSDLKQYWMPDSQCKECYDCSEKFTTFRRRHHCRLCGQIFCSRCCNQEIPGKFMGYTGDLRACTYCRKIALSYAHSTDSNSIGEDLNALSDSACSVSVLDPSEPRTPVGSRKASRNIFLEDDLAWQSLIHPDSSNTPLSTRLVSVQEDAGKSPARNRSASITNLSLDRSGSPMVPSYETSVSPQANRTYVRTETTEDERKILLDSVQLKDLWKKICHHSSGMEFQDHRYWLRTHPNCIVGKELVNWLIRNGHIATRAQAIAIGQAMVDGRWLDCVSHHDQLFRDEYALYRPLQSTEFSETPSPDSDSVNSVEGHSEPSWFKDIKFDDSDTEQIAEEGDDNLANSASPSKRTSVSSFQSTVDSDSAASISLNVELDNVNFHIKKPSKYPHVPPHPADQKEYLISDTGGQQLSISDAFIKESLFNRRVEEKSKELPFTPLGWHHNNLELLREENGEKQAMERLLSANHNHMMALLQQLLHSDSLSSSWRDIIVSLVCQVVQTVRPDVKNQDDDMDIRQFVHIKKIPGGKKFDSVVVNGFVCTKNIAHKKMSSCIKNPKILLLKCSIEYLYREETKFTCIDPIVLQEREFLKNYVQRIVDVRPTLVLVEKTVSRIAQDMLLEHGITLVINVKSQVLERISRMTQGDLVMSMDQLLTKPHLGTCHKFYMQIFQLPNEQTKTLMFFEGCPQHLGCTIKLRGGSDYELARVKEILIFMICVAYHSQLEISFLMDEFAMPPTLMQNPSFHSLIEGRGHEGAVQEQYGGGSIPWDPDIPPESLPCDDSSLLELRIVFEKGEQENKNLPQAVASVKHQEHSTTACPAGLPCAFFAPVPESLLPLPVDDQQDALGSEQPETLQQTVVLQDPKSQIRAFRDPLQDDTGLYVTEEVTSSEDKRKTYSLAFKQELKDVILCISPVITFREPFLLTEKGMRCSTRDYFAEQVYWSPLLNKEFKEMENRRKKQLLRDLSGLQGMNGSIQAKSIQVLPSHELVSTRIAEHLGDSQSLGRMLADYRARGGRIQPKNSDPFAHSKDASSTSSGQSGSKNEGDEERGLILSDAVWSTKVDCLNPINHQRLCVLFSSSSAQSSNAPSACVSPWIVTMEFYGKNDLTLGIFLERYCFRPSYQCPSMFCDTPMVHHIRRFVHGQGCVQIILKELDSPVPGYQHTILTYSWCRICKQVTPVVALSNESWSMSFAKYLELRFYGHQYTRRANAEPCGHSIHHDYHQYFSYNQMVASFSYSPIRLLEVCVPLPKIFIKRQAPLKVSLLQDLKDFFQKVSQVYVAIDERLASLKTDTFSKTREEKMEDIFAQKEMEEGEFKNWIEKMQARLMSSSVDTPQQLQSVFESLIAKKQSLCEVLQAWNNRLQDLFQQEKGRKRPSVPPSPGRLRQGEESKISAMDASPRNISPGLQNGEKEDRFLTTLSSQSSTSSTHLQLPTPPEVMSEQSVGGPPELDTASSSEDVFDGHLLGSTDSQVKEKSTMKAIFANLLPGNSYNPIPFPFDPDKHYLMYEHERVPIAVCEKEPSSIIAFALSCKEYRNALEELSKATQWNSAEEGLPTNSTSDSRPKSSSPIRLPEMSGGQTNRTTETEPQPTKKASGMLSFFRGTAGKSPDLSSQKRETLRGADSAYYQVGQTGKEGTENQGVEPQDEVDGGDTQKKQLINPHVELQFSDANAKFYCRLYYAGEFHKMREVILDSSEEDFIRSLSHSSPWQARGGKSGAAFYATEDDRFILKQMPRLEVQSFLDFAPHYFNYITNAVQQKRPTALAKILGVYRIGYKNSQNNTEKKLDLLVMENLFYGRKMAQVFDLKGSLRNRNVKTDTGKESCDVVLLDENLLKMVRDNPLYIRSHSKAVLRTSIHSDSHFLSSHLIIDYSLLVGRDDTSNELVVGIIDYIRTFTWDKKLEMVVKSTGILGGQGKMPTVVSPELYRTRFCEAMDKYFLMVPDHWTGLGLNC
T11 sequence (P68400 whole entry): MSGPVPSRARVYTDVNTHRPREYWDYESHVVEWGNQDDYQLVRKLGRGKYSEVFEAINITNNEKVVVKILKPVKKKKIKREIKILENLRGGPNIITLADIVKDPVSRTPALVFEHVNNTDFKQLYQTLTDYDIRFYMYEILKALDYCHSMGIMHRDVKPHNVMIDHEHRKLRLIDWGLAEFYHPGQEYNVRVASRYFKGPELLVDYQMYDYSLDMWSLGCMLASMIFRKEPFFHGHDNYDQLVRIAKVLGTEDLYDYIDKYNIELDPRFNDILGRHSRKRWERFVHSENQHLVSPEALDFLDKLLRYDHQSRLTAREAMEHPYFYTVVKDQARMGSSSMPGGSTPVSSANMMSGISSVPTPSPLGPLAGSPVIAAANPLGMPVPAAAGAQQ
T1 sequence (Q13554 whole entry): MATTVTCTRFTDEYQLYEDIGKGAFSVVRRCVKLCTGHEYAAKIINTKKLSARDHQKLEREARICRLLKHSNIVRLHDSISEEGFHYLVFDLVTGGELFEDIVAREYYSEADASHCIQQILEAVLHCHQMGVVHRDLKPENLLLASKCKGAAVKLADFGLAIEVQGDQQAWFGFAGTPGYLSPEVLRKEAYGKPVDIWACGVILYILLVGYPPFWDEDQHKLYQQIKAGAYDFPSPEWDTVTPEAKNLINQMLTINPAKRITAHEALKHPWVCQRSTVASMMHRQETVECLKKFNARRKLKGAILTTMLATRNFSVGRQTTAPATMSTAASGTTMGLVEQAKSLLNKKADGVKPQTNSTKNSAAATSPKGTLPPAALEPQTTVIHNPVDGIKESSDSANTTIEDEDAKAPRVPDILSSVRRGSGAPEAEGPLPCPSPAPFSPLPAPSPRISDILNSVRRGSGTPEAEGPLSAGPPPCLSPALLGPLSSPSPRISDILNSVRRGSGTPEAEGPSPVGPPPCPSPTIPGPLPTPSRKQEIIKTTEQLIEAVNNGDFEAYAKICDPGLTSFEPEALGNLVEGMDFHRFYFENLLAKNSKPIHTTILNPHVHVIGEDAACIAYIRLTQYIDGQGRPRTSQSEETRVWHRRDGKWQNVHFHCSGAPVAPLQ

Turning to `COc1ccc2c(c1)[nH]c1c(C)nc(CO)cc12` [Compound 2-8, (1-Methyl-7-methoxy-9H-pyrido[3,4-b]indol-3-yl)methanol], the remaining binding at 10 µM in [1] (CAMK2B, 10 μM) came out at 42%; in [2] (RPS6KA4(Kin.Dom.2-C-terminal), 10 μM), 1%; in [4] (KIT(V559D,V654A) mutant, 10 μM), 100%; in assay [6] (PDGFRA, 10 μM), 100%; in assay [7] (PIKFYVE, 10 μM) it was 88%; in [8] (TAOK3, 10 μM), 70%. The remaining binding at 10 µM in [9] (FLT3, 10 μM) amounted to 100%. Also, the “% DMSO Ctrl” value in assay [3] was 87 % DMSO Ctrl; in [5], 37 % DMSO Ctrl.

Take `COc1ccc2c3ccnc(C)c3n(CCCc3noc(N)n3)c2c1` [Compound 20-13, 3-(3-(7-Methoxy-1-methyl-β-carbolin-9-yl)propyl)-5-amino-1,2,4-oxadiazole]: the remaining binding at 10 µM in assay [1] turned out to be 69%; in [2], 85%; in assay [10] it was 28%; in assay [4], 98%; in [11] it was 6.2%; in assay [6], 83%. Besides, the remaining binding at 10 µM in assay [7] was determined as 3.2%; in assay [8], 77%; in assay [12], 51%; in assay [9], 86%; in assay [13], 49%. The “% DMSO Ctrl” value is on record as 72 % DMSO Ctrl in assay [3] and 11 ^c % DMSO Ctrl in assay [5].

`C#CCn1c2cc(OC)ccc2c2ccnc(C)c21` [Compound 20-23a, 3-(7-Methoxy-1-methyl-β-carbolin-9-yl)-propan-1-yne]: the remaining binding at 10 µM is 3% in assay [1]; 55% in assay [2]; 26% in [10] (PIM1, 10 μM); 100% in assay [4]; 4.5% in assay [11] (HIPK3, 10 μM); 100% in assay [6]. Besides, the remaining binding at 10 µM in [7] worked out at 60%; in [8], 93%; in [12] (CDK7, 10 μM) it was 0.8%; in assay [9], 65%; in assay [13] (CSNK2A1, 10 μM) it was 46%. The figures for the “% DMSO Ctrl” value in [3] and in assay [5] were 61 % DMSO Ctrl and 11 ^c % DMSO Ctrl, respectively.

As for `COc1ccc2c(c1)[nH]c1c(C)nccc12` [Harmine, reference compound], the remaining binding at 10 µM in assay [10] turned out to be 45%; in assay [11], 9.4%; in [12] it was 21%; in assay [13], 11%.

The record behind these values is patent publication US12421232B2, “Kinase inhibitor compounds and compositions and methods of use” (ICAHN SCHOOL OF MEDICINE AT MOUNT SINAI, priority 2018, dated 2025).
